Consider 12 molecules from US12084420B2, “Indoline compounds for inhibiting KIF18A” (Volastra Therapeutics, Inc., priority 2021, dated 2024).

In this assay the target is hKIF18A (1-374) (Homo sapiens (Human), UniProt Q8NI77). In words: Inhibition of KIF18A microtubule-dependent ATPase activity (ADP-Glo). The following applies: KIF18A microtubule-dependent ATPase activity, biochemical assay. A general note: ADP-Glo first removes unused ATP, then detects ADP through luciferase.
hKIF18A (1-374), sequence (Q8NI77 whole entry, looked up): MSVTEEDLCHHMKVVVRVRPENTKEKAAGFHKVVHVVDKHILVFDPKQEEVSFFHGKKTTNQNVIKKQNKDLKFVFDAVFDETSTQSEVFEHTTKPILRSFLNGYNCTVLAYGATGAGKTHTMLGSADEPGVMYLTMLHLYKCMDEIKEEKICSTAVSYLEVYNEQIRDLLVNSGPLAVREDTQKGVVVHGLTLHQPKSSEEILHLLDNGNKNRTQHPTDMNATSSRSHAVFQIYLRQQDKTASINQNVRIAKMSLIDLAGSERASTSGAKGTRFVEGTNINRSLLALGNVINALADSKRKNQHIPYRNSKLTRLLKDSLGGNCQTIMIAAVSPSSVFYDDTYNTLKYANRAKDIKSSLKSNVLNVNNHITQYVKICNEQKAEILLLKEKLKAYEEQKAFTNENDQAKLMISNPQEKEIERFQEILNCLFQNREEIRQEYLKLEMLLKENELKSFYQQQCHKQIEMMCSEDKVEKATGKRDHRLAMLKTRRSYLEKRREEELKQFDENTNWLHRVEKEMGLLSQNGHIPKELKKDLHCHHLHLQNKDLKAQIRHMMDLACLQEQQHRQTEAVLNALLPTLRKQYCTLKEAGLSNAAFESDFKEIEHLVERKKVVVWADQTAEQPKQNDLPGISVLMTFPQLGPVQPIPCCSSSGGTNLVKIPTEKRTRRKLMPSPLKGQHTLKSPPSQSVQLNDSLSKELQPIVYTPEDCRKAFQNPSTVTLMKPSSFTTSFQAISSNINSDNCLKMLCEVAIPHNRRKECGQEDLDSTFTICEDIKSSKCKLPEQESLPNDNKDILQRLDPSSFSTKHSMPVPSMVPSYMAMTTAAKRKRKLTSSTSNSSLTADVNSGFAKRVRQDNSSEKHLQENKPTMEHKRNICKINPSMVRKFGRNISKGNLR
hKIF18A (1-374), sequence (Q2XVP4 whole entry partner, looked up): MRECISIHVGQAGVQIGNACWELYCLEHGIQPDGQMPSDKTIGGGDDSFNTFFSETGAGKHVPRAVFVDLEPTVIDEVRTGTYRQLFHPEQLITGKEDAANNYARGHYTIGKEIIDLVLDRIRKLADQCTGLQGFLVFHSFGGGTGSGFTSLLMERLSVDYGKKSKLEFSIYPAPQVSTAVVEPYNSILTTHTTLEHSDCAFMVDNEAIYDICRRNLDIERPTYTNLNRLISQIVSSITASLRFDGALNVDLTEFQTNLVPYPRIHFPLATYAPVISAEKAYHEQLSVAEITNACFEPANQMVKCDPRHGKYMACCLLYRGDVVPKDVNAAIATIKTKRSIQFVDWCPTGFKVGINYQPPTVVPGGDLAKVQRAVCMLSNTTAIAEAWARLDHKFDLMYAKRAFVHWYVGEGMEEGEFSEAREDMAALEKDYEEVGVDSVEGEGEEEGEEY
hKIF18A (1-374), sequence (P02554 whole entry partner, looked up): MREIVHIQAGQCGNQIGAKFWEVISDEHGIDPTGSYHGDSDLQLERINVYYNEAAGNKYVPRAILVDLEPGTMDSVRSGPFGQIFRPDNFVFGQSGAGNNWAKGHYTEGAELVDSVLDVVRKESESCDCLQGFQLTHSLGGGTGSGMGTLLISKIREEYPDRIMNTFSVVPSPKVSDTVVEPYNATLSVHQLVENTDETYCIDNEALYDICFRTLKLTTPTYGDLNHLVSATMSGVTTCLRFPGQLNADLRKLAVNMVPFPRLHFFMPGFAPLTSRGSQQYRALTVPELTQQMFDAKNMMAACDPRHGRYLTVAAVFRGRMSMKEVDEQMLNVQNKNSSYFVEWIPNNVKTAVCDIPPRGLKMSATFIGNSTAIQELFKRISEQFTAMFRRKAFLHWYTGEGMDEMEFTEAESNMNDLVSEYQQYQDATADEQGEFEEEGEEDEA
Usually IC50 stands for the concentration that inhibits the measured activity by half. Read a high IC50 as lower potency. Consider `CCOC(=O)Nc1ccc2c(c1)C1(CCCCC1)CN2C(=O)c1cccc(S(=O)(=O)N2CCCCC2)c1` [Compound 141, ethyl (1′-(3-(piperidin-1-ylsulfonyl)benzoyl)spiro[cyclohexane-1,3′-indolin]-5′-yl)carbamate], for which the IC50 worked out at 1100 nM. This counts as single-digit micromolar.

Take `Cn1cc(S(=O)(=O)NC(C)(C)C)cc1C(=O)N1CC2(CCCCC2)c2cc(NS(C)(=O)=O)ccc21` [Compound 145, N-(tert-butyl)-1-methyl-5-(5′-(methylsulfonamido)spiro[cyclohexane-1,3′-indoline]-1′-carbonyl)-1H-pyrrole-3-sulfonamide]: the IC50 was 290 nM. Against the preceding molecule, the IC50 is about 3.8-fold lower.

With `CS(=O)(=O)Nc1ccc2c(c1)C1(CCCCC1)CN2C(=O)c1cccc(SC2CCCC2)c1` [Compound 146, N-(1′-(3-(cyclopentylthio)benzoyl)spiro[cyclohexane-1,3′-indolin]-5′-yl)methanesulfonamide], half-maximal inhibition (IC50) was put at 190 nM.

`CC(C)(C)NS(=O)(=O)c1ccc(C(=O)N2CC3(CCCCC3)c3cc(NS(C)(=O)=O)ccc32)o1` [Compound 149, N-(tert-butyl)-5-(5′-(methylsulfonamido)spiro[cyclohexane-1,3′-indoline]-1′-carbonyl)furan-2-sulfonamide] gave an IC50 of 78 nM.

In turn, `CC(C)(C)NS(=O)(=O)c1cccc(C(=O)N2C[C@]3(CC[C@@H](C(F)F)CC3)c3cc(NS(C)(=O)=O)ccc32)c1` [Compound 162b] displayed an IC50 of 37 nM.

With `CS(=O)(=O)Nc1ccc2c(c1)C1(CCC3(CC3)CC1)CN2C(=O)c1cccc(C(=O)C2CCCC2)c1` [Compound 164, N-(1″-(3-(cyclopentanecarbonyl)benzoyl)dispiro[cyclopropane-1,1′-cyclohexane-4′,3″- indolin]-5″-yl)methanesulfonamide], it took 120 nM to reach half-maximal inhibition (IC50).

As for `CS(=O)(=O)Nc1ccc2c(c1)C1(CCC3(CC3)CC1)CN2C(=O)c1cccc(C(O)C2CCCC2)c1` (stereo not drawn) [Compound 165, N-(1″-(3-(cyclopentyl(hydroxy)methyl)benzoyl)dispiro[cyclopropane-1,1′-cyclohexane-4′,3″indolin]-5″- yl)methanesulfonamide], 15 nM corresponded to half-maximal inhibition (IC50).

On to `O=C(c1cccc(S(=O)(=O)N2CCCCC2)c1)N1CC2(CCCCC2)c2cc(O)ccc21` [Compound 166, (5′-hydroxyspiro[cyclohexane-1,3′-indolin]-1′-yl)(3-(piperidin-1-ylsulfonyl)phenyl)methanone], for which the IC50 was found to be 1100 nM.

The molecule `CCC(C)NS(=O)(=O)c1cccc(C(=O)N2CC3(CCC4(CC4)CC3)c3cc(NS(C)(=O)=O)ccc32)c1` (stereo not drawn) [Compound 170, N-(sec-butyl)-3-(5″- (methylsulfonamido)dispiro[cyclopropane-1,1′-cyclohexane-4′,3″-indoline]-1″-carbonyl)benzenesulfonamide] came in with an IC50 of 15 nM.

`CS(=O)(=O)Nc1ccc2c(c1)C1(CCC3(CC3)CC1)CN2C(=O)c1cccc(S(=O)(=O)NC2COC2)c1` [Compound 174, 3-(5″- (methylsulfonamido)dispiro[cyclopropane-1,1′-cyclohexane-4′,3″-indoline]-1″-carbonyl)-N-(oxetan-3-yl)benzenesulfonamide] displayed an IC50 of 56 nM. This IC50 lies about 3.7-fold higher than the previous one.

`CS(=O)(=O)Nc1ccc2c(c1)C1(CCC3(CC3)CC1)CN2C(=O)c1cccc(S(=O)(=O)NC2CCCC2)c1` [Compound 176, N-cyclopentyl-3-(5″- (methylsulfonamido)dispiro[cyclopropane-1,1″-cyclohexane-4′,3″-indoline]-1″-carbonyl)benzenesulfonamide] had an IC50 of 5.6 nM.

`CC1(NS(=O)(=O)c2cccc(C(=O)N3CC4(CCC5(CC5)CC4)c4cc(NS(C)(=O)=O)ccc43)c2)CCOC1` (stereo not drawn) [Compound 178, 3-(5″- (methylsulfonamido)dispiro[cyclopropane-1,1′-cyclohexane-4′,3″-indoline]-1″-carbonyl)-N-(3-methyltetrahydrofuran-3-yl)benzenesulfonamide] showed an IC50 of 17 nM. Against the preceding molecule, the IC50 is about 3-fold higher.
